Source: PMC6478823, “A suite of phenotypic assays to ensure pipeline diversity when prioritizing drug-like Cryptosporidium growth inhibitors” (Nature Communications, 2019)
Several values for one entry are separate records, joined by “and”; a condition that tells them apart may be missing. Equal entries are not always repeated.

Experiments:
[1] = system: C. parvum DMC1 expression; test: Sexual differentiation assay (DMC1 expression); type: cell-based, Cryptosporidium parvum; settings: for Asexual to sexual differentiation: Mean % DMC1 inhibition (normalized to host nuclei), Average: average of replicates; for Asexual to sexual differentiation: Mean % DMC1 inhibition (normalized to host nuclei), Replicate 1a: single replicate 1; for Asexual to sexual differentiation: Mean % DMC1 inhibition (normalized to host nuclei), Replicate 2a: single replicate 2; for Asexual to sexual differentiation: Mean % DMC1 inhibition (normalized to host nuclei), Replicate 3a: single replicate 3; for 48 - 72 h DMC1 (asexual to sexual conversion): Mean % DMC1 inhibition (normalized to host nuclei): replicates 1-2
Description: We utilized DMC1 as a marker of C. parvum sexual development, and used the anti-DMC1 monoclonal antibody to develop a moderate-throughput high-content microscopy assay for characterizing anticryptosporidial compounds (Fig. 6a). […] Therefore, in order to enable numerical comparison of the ability of compounds to block sexual development with moderate throughput, we adopted a strategy of reporting the percent inhibition of DMC1 expression by the previously determined EC90 of each compound in the standard asexual development assay (Fig. 6c and Supplementary Table 2).
Fig. 6 Assay to measure asexual-to-sexual-stage conversion. a Schematic of the experimental approach. […] For b and c the mean and SD combined from at least two biological replicates with four technical replicates per experiment are shown. […] At given time points post-infection, infected cells were washed 3 times with PBS containing 111 mM of D-galactose, fixed for 15 min at room temperature with 4% paraformaldehyde in PBS, and permeabilized with 0.25% triton X-100 in PBS for 10 min at 37 °C. Cells were then washed 3 times with PBS and blocked at least overnight at 4 °C with 1% BSA in PBS (blocking buffer). Cells were stained with monoclonal antibody (1H10G7), either neat culture supernatant or 12.8 µg/mL of purified IgG in blocking buffer for 1 h at 37 °C, followed by 2 washes with PBS. Cells were then co-stained with a 1:500 dilution (4 µg/mL) of Alexa Fluor 568 goat anti-mouse IgG (Invitrogen, catalog# A-11004) and 1.33 µg/mL fluorescein-labeled Vicia villosa lectin (Vector Laboratories, catalog# FL-1231) diluted in blocking buffer for 1 h at 37 °C. Stains were then removed and 0.09 mM Hoechst 33258 (AnaSpec, catalog# AS-83219) also diluted in blocking buffer was added for another 15 min at 37 °C, followed by 2 PBS washes and imaging on a Nikon Eclipse Ti2000 epifluorescence microscope run with NIS-Elements Advanced Research software (Nikon, USA) and equipped with an EXi blue fluorescent microscopy camera (QImaging, Canada). For enumerating parasites, tiled 2 × 2 images with 15% overlapping edges were taken using a 40 × dry objective (0.7 NA), and for finer details, Z stack images were acquired using a 60 × oil objective (1.4 NA). Lectin positive cells in focus were first counted, followed by DMC1.
For compound dose-response studies, the same assay was performed in 384-well plates and imaged using a 20 × dry objective (NA = 0.45). Tiled 4 × 4 to 6 × 6 images were taken. Images were analyzed using ImageJ software and the custom macro provided in Supplementary Method 2.

C. parvum = type: cell-based, Cryptosporidium parvum; settings: compound at EC90; for Invasion Assay: Mean % Inhibition (parasites), Average: average of replicates; for Invasion Assay: Mean % Inhibition (parasites), Replicate 1a: single biological replicate 1; for Invasion Assay: Mean % Inhibition (parasites), Replicate 2a: single biological replicate 2; for Invasion Assay: Mean % Inhibition (parasites), Replicate 3a: single biological replicate 3; for Invasion Assay: Mean % Inhibition (parasites), Replicate 4a: single biological replicate 4; for Sporozoite invasion: yes/no grouping by phenotypic assay result
Description: The first step in infection is host cell invasion, which involves a complex process encompassing oocyst excystation, parasite motility, adhesion, and parasitophorous vacuole formation (Fig. 2a). Our strategy to assay for compounds affecting invasion was simply to expose C. parvum to compounds immediately after triggering excystation and throughout the invasion process, and then enumerate the parasite vacuoles after 3 h, prior to allowing the parasites to replicate (summarized in Fig. 2b).
Fig. 2 Invasion Assay. a Overview of life cycle stage investigated during the invasion assay. Representative TEM images of a C. parvum oocyst and HCT-8 cell shortly after infection (Scale bar = 500 nm). b Schematic of experimental design. […] Each point represents the mean and SD of at least two biological replicates with four technical replicates per experiment.
C. parvum invasion inhibition was measured by modifying the 48 h growth inhibition assay described above. […] In parallel, Iowa strain oocysts were excysted. […] Assay plates were incubated at 37 °C and 5% CO2 for 3 h.

[2] = compound at asexual EC90, 48-72 h

Compound: Cc1cccc(-n2ncc3c(=O)[nH]c(-n4nc(C)cc4NC(=O)C4CCCC4)nc32)c1 [C-5]
- Asexual to sexual differentiation: Mean % DMC1 inhibition (normalized to host nuclei), Average [1, 2]: 52.89%
- Asexual to sexual differentiation: Mean % DMC1 inhibition (normalized to host nuclei), Replicate 1a [1, 2]: 39.80%
- Asexual to sexual differentiation: Mean % DMC1 inhibition (normalized to host nuclei), Replicate 2a [1, 2]: 65.99%
- Invasion Assay: Mean % Inhibition (parasites), Average (C. parvum): 13.07%
- Invasion Assay: Mean % Inhibition (parasites), Replicate 1a (C. parvum): 31%
- Invasion Assay: Mean % Inhibition (parasites), Replicate 2a (C. parvum): -4.39%

Compound: CN(C)S(=O)(=O)c1ccc(C(=O)N2CCN(c3ccc4nncn4n3)CC2)cc1 [D-44]
- Asexual to sexual differentiation: Mean % DMC1 inhibition (normalized to host nuclei), Average [1, 2]: 74.35%
- Asexual to sexual differentiation: Mean % DMC1 inhibition (normalized to host nuclei), Replicate 1a [1, 2]: 86.32%
- Asexual to sexual differentiation: Mean % DMC1 inhibition (normalized to host nuclei), Replicate 2a [1, 2]: 62.37%
- Invasion Assay: Mean % Inhibition (parasites), Average (C. parvum): -11.48%
- Invasion Assay: Mean % Inhibition (parasites), Replicate 1a (C. parvum): -25%
- Invasion Assay: Mean % Inhibition (parasites), Replicate 2a (C. parvum): -14%
- Invasion Assay: Mean % Inhibition (parasites), Replicate 3a (C. parvum): 2%
- Invasion Assay: Mean % Inhibition (parasites), Replicate 4a (C. parvum): -9%

Compound: CN(C)c1ccc(C(=C2C=CC(=[N+](C)C)C=C2)c2ccc(N(C)C)cc2)cc1 [Gentian Violet]
- Asexual to sexual differentiation: Mean % DMC1 inhibition (normalized to host nuclei), Average [1, 2]: 34.34%
- Asexual to sexual differentiation: Mean % DMC1 inhibition (normalized to host nuclei), Replicate 1a [1, 2]: 8.16%
- Asexual to sexual differentiation: Mean % DMC1 inhibition (normalized to host nuclei), Replicate 2a [1, 2]: 38.90%
- Asexual to sexual differentiation: Mean % DMC1 inhibition (normalized to host nuclei), Replicate 3a [1, 2]: 55.96%
- Invasion Assay: Mean % Inhibition (parasites), Average (C. parvum): -6.62%
- Invasion Assay: Mean % Inhibition (parasites), Replicate 1a (C. parvum): -1.27%
- Invasion Assay: Mean % Inhibition (parasites), Replicate 2a (C. parvum): -12%

Compound: Cc1cccc(-n2ncc3c(=O)[nH]c(-n4nc(C)cc4NC(=O)C4CC4)nc32)c1 [C-4]
- Asexual to sexual differentiation: Mean % DMC1 inhibition (normalized to host nuclei), Average [1, 2]: 64.12%
- Asexual to sexual differentiation: Mean % DMC1 inhibition (normalized to host nuclei), Replicate 1a [1, 2]: 60.65%
- Asexual to sexual differentiation: Mean % DMC1 inhibition (normalized to host nuclei), Replicate 2a [1, 2]: 67.59%
- Invasion Assay: Mean % Inhibition (parasites), Average (C. parvum): 9.11%
- Invasion Assay: Mean % Inhibition (parasites), Replicate 1a (C. parvum): 19%
- Invasion Assay: Mean % Inhibition (parasites), Replicate 2a (C. parvum): -1.12%

Compound: O=c1[nH]c(=O)n([C@H]2C[C@H](O)[C@@H](CO)O2)cc1F [Floxuridine]
- Asexual to sexual differentiation: Mean % DMC1 inhibition (normalized to host nuclei), Average [1, 2]: -7.53%
- Asexual to sexual differentiation: Mean % DMC1 inhibition (normalized to host nuclei), Replicate 1a [1, 2]: -14.02%
- Asexual to sexual differentiation: Mean % DMC1 inhibition (normalized to host nuclei), Replicate 2a [1, 2]: -1.05%
- Invasion Assay: Mean % Inhibition (parasites), Average (C. parvum): -28.03%
- Invasion Assay: Mean % Inhibition (parasites), Replicate 1a (C. parvum): -30%
- Invasion Assay: Mean % Inhibition (parasites), Replicate 2a (C. parvum): -26%
- Sporozoite invasion (C. parvum): no

Compound: Cc1cc(/C=C/c2ccc3cc(N(C)C)ccc3[n+]2C)c(C)n1-c1ccccc1 [Pyrvinium pamoate]
- Asexual to sexual differentiation: Mean % DMC1 inhibition (normalized to host nuclei), Average [1, 2]: 68.07%
- Asexual to sexual differentiation: Mean % DMC1 inhibition (normalized to host nuclei), Replicate 1a [1, 2]: 51.94%
- Asexual to sexual differentiation: Mean % DMC1 inhibition (normalized to host nuclei), Replicate 2a [1, 2]: 84.21%
- Invasion Assay: Mean % Inhibition (parasites), Average (C. parvum): 25.69%
- Invasion Assay: Mean % Inhibition (parasites), Replicate 1a (C. parvum): 30%
- Invasion Assay: Mean % Inhibition (parasites), Replicate 2a (C. parvum): 22%

Compound: Oc1c(CN2CCN(c3ccccc3F)CC2)cc(Br)c2cccnc12 [A-6]
- Asexual to sexual differentiation: Mean % DMC1 inhibition (normalized to host nuclei), Average [1, 2]: 17.22%
- Asexual to sexual differentiation: Mean % DMC1 inhibition (normalized to host nuclei), Replicate 1a [1, 2]: 31.05%
- Asexual to sexual differentiation: Mean % DMC1 inhibition (normalized to host nuclei), Replicate 2a [1, 2]: 3.39%
- Invasion Assay: Mean % Inhibition (parasites), Average (C. parvum): -20.21%
- Invasion Assay: Mean % Inhibition (parasites), Replicate 1a (C. parvum): -18%
- Invasion Assay: Mean % Inhibition (parasites), Replicate 2a (C. parvum): -23%
- Sporozoite invasion (C. parvum): no

Compound: c1ccc(CNc2nc(Nc3ccccc3)nc3ccccc23)cc1 [B-1]
- 48 - 72 h DMC1 (asexual to sexual conversion): Mean % DMC1 inhibition (normalized to host nuclei) ([1]; B-1 at log[MMV006169] (µM) 0.22): -6.54% and 4.81%
- 48 - 72 h DMC1 (asexual to sexual conversion): Mean % DMC1 inhibition (normalized to host nuclei) ([1]; B-1 at log[MMV006169] (µM) 0.52): -9.41% and 15.73%
- 48 - 72 h DMC1 (asexual to sexual conversion): Mean % DMC1 inhibition (normalized to host nuclei) ([1]; B-1 at log[MMV006169] (µM) 0.70): -14.15% and 22.48%
- 48 - 72 h DMC1 (asexual to sexual conversion): Mean % DMC1 inhibition (normalized to host nuclei) ([1]; B-1 at log[MMV006169] (µM) 1.00): 25.47% and 51.27%
- 48 - 72 h DMC1 (asexual to sexual conversion): Mean % DMC1 inhibition (normalized to host nuclei) ([1]; B-1 at log[MMV006169] (µM) -0.25): 2.94% and -1.61%
- 48 - 72 h DMC1 (asexual to sexual conversion): Mean % DMC1 inhibition (normalized to host nuclei) ([1]; B-1 at log[MMV006169] (µM) -0.73): 13.51% and -3.18%
- 48 - 72 h DMC1 (asexual to sexual conversion): Mean % DMC1 inhibition (normalized to host nuclei) ([1]; B-1 at log[MMV006169] (µM) -1.21): 14.75% and -24.05%
- 48 - 72 h DMC1 (asexual to sexual conversion): Mean % DMC1 inhibition (normalized to host nuclei) ([1]; B-1 at log[MMV006169] (µM) -1.69): 19.37% and -12.74%
- 48 - 72 h DMC1 (asexual to sexual conversion): Mean % DMC1 inhibition (normalized to host nuclei) ([1]; B-1 at log[MMV006169] (µM) -2.16): 9.35% and -23.05%
- activity in the DMC1 (sexual development) assay relative to asexual assay ([1]; compound added at 48 h, read at 72 h, result in words): less potent when used during the sexual phases of development
- Asexual to sexual differentiation: Mean % DMC1 inhibition (normalized to host nuclei), Average [1, 2]: 18.08%
- Asexual to sexual differentiation: Mean % DMC1 inhibition (normalized to host nuclei), Replicate 1a [1, 2]: 32.96%
- Asexual to sexual differentiation: Mean % DMC1 inhibition (normalized to host nuclei), Replicate 2a [1, 2]: -3.57%
- Asexual to sexual differentiation: Mean % DMC1 inhibition (normalized to host nuclei), Replicate 3a [1, 2]: 17.22%
- Asexual to sexual differentiation: Mean % DMC1 inhibition (normalized to host nuclei), Replicate 4a ([1]; compound at asexual EC90, 48-72 h, single replicate 4): 25.70%
- EC50 ([1]; inhibition of DMC1 expression from 48 to 72 h, range in brackets, read-out: 48 − 72 h DMC1 (asexual to sexual conversion): EC50): 11 µM
- Invasion Assay: Mean % Inhibition (parasites), Average (C. parvum): 56.43%
- Invasion Assay: Mean % Inhibition (parasites), Replicate 1a (C. parvum): 55%
- Invasion Assay: Mean % Inhibition (parasites), Replicate 2a (C. parvum): 63%
- Invasion Assay: Mean % Inhibition (parasites), Replicate 3a (C. parvum): 42%
- Invasion Assay: Mean % Inhibition (parasites), Replicate 4a (C. parvum): 66%
- Sporozoite invasion (C. parvum): yes

Compound: Cc1cn(-c2cc(NC(=O)c3ccc(C)c(Nc4nccc(-c5cccnc5)n4)c3)cc(C(F)(F)F)c2)cn1 [Nilotinib]
- Asexual to sexual differentiation: Mean % DMC1 inhibition (normalized to host nuclei), Average [1, 2]: 70.96%
- Asexual to sexual differentiation: Mean % DMC1 inhibition (normalized to host nuclei), Replicate 1a [1, 2]: 66.12%
- Asexual to sexual differentiation: Mean % DMC1 inhibition (normalized to host nuclei), Replicate 2a [1, 2]: 75.79%
- Invasion Assay: Mean % Inhibition (parasites), Average (C. parvum): -21.88%
- Invasion Assay: Mean % Inhibition (parasites), Replicate 1a (C. parvum): -24%
- Invasion Assay: Mean % Inhibition (parasites), Replicate 2a (C. parvum): -19%
